Test results taken from US20230321067A1, “DOSING REGIMEN COMPRISING 3-(1-OXOISOINDOLIN-2-YL)PIPERIDINE-2,6-DIONE DERIVATIVES” (Novartis AG, priority 2020, published 2023).
Like-named read-outs stand apart in the source and are kept apart here.

Tests used:
[1] = target: T1, IKZF2 (Homo sapiens, UniProt Q96SW2+Q9UKS7); assay: Degradation of prolabel-tagged IKZF2 in HEK293T cells (FIG. 1); assay type: cell-based; set-up: prolabel (ProLabel enzyme-fragment tag); expressed in transfected cells; host or cells: HEK293T; details: HEK293T cells overexpressing prolabel-tagged target proteins, various concentrations
From the text: FIG. 1. is a graph showing the selectivity of Compound I-57 for the degradation of IKZF2 over the other IKAROS family members, IKZF1, IKZF4, and GSPT1 at various concentrations in HEK293T cells overexpressing prolabel-tagged target proteins.

[2] = system: plasma protein; assay: Plasma protein binding in vitro, mouse; assay type: in vitro ADME
From the text: (§1) The binding to plasma protein of I-57 in vitro was moderate in all species, with an observed difference between rodents (73% in mouse, 76% in rat) and non-rodents (52% in dog and monkey, 54% in human). Blood-to-plasma ratios were in the range of 0.7-1.8 (human 1.1-1.3). […] Based on results with non-radiolabeled I-57 in the dog, a significant amount of unchanged I-57 was renally eliminated (˜20% of dose).

[3] = In vivo non-clinical PK, mouse
Procedure: The in vivo non-clinical PK profile of I-57 was investigated in mouse, rat, dog and cynomolgus monkey using I-57 free base. […] After p.o. administration, the absorption of I-57 was rapid with peak blood concentration (Tmax) occurring between 1 and 4 hours. […] In high dose PK and toxicology studies with I-57 the exposures in mouse, rat and monkey increased with dose.
as §1

[4] = system: IL2 mRNA; assay: Upregulation of IL2 mRNA in TCR-stimulated Jurkat cells (FIG. 2B); assay type: cell-based; details: increasing concentrations
Procedure: FIG. 2B is a graph showing the change upregulation of IL2 mRNA in TCR-stimulated Jurkat cells after IKZF2 degradation when cells were treated with increasing concentrations of Compound I-57.

[5] = target: T1, IKZF2; assay: IKZF2 in human Tregs (tumor, blood) by flow cytometry, hPBMC AdT model; assay type: in vivo, NSG mice with human PBMCs; set-up: endogenous in cells; host or cells: human lymphocytes (CD4+FOXP3+ Tregs; total tumor-infiltrating lymphocytes) from healthy-donor PBMC transferred into NSG mice
Procedure: The PK/PD relationship of I-57 was examined in the hPBMC AdT model system. Human PBMCs were adoptively transferred into female NSG mice harboring established MDA-MB231 xenografts (FIG. 6). This model was selected based on the observation that IKZF2 positive Tregs (CD4+FOXP3+) were readily identifiable in peripheral blood and infiltrated in the tumor xenografts.
The impact of I-57 on IKZF2 protein expression in human Tregs in the periphery and infiltrated in MDA-MB231 xenografts was assessed via flow cytometry at multiple time points after the last I-57 dose. […] Maximum effects were generally observed 4-16 h post dose. At a given dose level, the magnitude and duration of IKZF2 reduction in Tregs was generally consistent across tissues (tumor, spleen and blood).
Based on the data from this hPBMC AdT mouse model, unbound I-57 (73% percent plasma binding in the mouse) exposures (AUCinf) of 7, 30, 157 and 3474 ng*h/mL are required to achieve the reduction of IKZF2 positivity (via flow cytometry) in tumor Tregs by 31, 43, 56, and 75%, respectively. The relationship between the magnitude and duration of I-57-mediated IKZF2 degradation and subsequent modulation of therapeutically relevant downstream biology is not yet well understood.

[6] = system: CYP3A; assay: Time-dependent CYP inhibition: CYP3A; assay type: in vitro ADME; details: I-57 concentrations of up to 100 μM
[7] = system: IKZF2; assay: Repeated daily oral dose PD in cynomolgus monkey: IKZF2 in FOXP3+ T cells by flow cytometry; assay type: in vivo
Procedure: (§2) The PK/PD relationship of I-57 was further examined in cynomolgus monkeys after repeated daily oral doses of 0.1 and 3 mg/kg. In this study, a cohort of animals were initially immunized with an antigen-adjuvant mixture (KLH/Squalene). The experiment was designed to assess the effect of I-57 exposure, and the resulting IKZF2 degradation, on immune response during immunization to test the hypothesis that IKZF2 degradation would result in increased proliferation of stimulated T-cells. In the experiment, daily I-57 oral treatment was initiated 5 days after immunization. An immunization booster dose was administered on day 15. I-57 plasma concentration and IKZF2 expression (as determined by flow cytometry) in FOXP3+ T cells from PBMCs were determined (FIG. 9A and FIG. 9B).
Consistent with previous findings, IKZF2 degradation was detected 24 h after the first dose (at day 6) (FIG. 9A and FIG. 9B). The levels of IKZF2 decreased further upon repeat dosing and reached a steady-state level approximately 72 h after initiation of treatment. This level of degradation was maintained throughout the remainder of the treatment (24 days).

[8] = target: CYP2C19 (Homo sapiens, UniProt P33261); assay: Time-dependent CYP inhibition: CYP2C19; assay type: in vitro ADME; details: I-57 concentrations of up to 100 μM
[9] = Repeated daily oral dose PK in cynomolgus monkey; assay type: in vivo; details: unbound; for Cmax / AUC(0-t): plasma, po; for AUC(0-t): read-out: AUC0-24
Procedure: as §2

[10] = target: CYP2A6 (Homo sapiens, UniProt P11509); assay: CYP inhibition: CYP2A6; assay type: in vitro ADME; details: I-57 concentrations of up to 100 μM
[11] = target: CYP2C9 (Homo sapiens, UniProt P11712); assay: Time-dependent CYP inhibition: CYP2C9; assay type: in vitro ADME; details: I-57 concentrations of up to 100 μM
[12] = 0.1 mg/kg/day, Day 5, Group 2 (only I-57), 0.1 mg/kg/day oral
[13] = 0.1 mg/kg/day, Day 5, Group 4 (I-57 + KLH + adjuvant), 0.1 mg/kg/day oral
[14] = 0.1 mg/kg/day, Day 29, Group 2 (only I-57), 0.1 mg/kg/day oral
[15] = 0.1 mg/kg/day, Day 29, Group 4 (I-57 + KLH + adjuvant), 0.1 mg/kg/day oral
[16] = 3 mg/kg/day, Day 5, Group 5 (I-57 + KLH + adjuvant), 3 mg/kg/day oral
[17] = 3 mg/kg/day, Day 29, Group 5 (I-57 + KLH + adjuvant), 3 mg/kg/day oral
[18] = Day 5, Group 2 (only I-57), 0.1 mg/kg/day oral
[19] = Day 5, Group 4 (I-57 + KLH + adjuvant), 0.1 mg/kg/day oral
[20] = Day 5, Group 5 (I-57 + KLH + adjuvant), 3 mg/kg/day oral
[21] = Day 29, Group 2 (only I-57), 0.1 mg/kg/day oral
[22] = Day 29, Group 4 (I-57 + KLH + adjuvant), 0.1 mg/kg/day oral
[23] = Day 29, Group 5 (I-57 + KLH + adjuvant), 3 mg/kg/day oral

T1 sequence (Q9UKS7 whole entry, the tested form may be a part): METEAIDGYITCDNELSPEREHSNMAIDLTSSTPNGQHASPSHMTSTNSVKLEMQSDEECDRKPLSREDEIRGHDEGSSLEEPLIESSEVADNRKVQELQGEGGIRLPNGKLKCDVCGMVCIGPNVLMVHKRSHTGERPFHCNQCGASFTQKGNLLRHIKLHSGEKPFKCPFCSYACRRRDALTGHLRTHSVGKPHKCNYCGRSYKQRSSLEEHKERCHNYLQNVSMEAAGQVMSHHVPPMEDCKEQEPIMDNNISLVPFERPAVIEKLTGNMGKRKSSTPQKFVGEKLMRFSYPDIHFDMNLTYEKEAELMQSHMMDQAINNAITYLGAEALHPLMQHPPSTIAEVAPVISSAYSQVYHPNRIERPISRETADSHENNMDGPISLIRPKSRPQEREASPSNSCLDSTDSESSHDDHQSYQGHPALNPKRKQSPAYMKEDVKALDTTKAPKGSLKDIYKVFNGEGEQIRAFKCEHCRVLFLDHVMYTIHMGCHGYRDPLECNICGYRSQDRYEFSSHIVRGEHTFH
T1 sequence (Q96SW2 whole entry, the tested form may be a part): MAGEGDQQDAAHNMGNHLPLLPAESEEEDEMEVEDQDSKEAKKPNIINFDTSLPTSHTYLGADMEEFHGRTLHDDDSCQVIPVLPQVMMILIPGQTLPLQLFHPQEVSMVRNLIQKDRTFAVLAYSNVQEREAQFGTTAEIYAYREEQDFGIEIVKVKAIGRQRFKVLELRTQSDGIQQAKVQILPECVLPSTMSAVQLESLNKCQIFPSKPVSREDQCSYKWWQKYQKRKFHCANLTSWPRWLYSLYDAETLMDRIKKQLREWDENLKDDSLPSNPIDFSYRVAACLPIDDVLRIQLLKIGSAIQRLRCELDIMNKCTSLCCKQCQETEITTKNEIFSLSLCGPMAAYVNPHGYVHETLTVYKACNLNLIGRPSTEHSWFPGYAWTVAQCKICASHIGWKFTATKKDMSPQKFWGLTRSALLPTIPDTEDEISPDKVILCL
T1 sequence (Q16531 whole entry partner, the tested form may be a part): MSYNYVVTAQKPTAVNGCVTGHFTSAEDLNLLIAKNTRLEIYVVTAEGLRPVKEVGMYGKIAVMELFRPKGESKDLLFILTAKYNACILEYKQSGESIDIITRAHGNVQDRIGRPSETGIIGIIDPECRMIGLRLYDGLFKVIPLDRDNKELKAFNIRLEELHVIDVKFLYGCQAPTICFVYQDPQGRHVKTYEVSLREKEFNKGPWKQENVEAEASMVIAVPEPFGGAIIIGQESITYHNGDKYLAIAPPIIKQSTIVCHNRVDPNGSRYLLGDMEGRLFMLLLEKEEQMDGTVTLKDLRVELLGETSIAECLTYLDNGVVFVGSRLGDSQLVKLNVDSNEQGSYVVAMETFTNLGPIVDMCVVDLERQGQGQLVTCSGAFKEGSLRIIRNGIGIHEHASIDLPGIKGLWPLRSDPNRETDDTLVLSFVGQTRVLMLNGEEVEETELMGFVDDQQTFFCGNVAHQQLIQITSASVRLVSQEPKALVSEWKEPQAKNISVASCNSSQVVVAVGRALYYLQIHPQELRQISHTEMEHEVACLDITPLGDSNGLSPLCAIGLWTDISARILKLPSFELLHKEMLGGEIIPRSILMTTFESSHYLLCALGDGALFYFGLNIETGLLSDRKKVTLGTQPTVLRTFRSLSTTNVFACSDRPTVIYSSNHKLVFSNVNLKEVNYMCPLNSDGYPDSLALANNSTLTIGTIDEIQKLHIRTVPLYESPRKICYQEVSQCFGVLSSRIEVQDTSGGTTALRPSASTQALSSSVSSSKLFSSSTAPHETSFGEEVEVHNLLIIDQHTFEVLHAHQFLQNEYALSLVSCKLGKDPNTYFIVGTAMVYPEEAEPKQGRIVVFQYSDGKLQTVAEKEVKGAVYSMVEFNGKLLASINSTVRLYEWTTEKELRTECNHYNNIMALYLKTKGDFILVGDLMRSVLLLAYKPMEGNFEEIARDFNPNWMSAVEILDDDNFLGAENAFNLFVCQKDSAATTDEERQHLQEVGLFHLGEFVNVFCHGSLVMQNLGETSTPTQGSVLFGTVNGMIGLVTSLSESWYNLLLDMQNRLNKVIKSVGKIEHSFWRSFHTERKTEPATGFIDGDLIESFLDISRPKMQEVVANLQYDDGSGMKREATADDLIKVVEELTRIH
Sequence of CYP2A6 (P11509 whole entry): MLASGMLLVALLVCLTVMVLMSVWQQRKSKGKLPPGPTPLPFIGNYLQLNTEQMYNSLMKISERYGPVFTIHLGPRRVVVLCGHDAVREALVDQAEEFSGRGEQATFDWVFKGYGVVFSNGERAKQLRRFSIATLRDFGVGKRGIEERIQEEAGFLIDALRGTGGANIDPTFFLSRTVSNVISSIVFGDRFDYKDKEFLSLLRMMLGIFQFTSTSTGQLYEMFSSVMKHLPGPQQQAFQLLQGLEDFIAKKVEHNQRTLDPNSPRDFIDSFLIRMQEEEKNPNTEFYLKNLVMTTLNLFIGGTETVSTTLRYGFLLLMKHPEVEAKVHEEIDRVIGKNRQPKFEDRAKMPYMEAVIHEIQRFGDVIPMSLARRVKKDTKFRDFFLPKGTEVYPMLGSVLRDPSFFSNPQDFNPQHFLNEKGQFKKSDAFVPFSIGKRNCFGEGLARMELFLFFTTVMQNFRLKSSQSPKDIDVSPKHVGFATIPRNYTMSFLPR
Sequence of CYP2C19 (P33261 whole entry): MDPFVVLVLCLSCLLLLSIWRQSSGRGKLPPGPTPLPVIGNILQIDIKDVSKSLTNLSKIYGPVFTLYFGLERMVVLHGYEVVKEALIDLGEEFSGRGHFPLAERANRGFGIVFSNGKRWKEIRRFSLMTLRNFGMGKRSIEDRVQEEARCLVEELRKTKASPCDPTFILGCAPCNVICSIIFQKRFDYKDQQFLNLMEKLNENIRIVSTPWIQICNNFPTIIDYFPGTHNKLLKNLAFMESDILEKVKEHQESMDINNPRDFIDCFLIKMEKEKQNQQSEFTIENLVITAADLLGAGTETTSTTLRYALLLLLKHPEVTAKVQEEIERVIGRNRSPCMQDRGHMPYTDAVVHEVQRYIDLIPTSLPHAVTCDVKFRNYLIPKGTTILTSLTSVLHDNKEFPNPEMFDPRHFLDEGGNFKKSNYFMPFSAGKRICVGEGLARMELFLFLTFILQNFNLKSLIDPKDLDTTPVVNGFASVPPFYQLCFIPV
Sequence of CYP2C9 (P11712 whole entry): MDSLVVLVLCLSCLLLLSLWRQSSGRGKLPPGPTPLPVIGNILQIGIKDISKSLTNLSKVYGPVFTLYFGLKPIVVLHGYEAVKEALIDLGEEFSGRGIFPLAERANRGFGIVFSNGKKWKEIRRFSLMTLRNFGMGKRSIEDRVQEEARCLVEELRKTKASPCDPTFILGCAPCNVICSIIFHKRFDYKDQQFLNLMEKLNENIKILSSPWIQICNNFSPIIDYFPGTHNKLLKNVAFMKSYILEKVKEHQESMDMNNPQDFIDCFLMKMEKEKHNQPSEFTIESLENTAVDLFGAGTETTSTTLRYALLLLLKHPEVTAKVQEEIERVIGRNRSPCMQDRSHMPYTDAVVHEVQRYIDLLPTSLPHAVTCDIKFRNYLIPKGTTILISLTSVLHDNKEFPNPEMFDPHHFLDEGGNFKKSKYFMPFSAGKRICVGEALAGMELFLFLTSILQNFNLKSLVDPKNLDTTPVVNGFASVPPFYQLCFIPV

SMILES: O=C1CCC(N2Cc3cc(C4CCN(Cc5ccccc5)CC4)ccc3C2=O)C(=O)N1 (stereo not shown) [Compound I-57, 3-(5-(1-benzylpiperidin-4-yl)-1-oxoisoindolin-2-yl)piperidine-2,6-dione]
- degradation of IKZF2 and selectivity over IKZF1, IKZF4 and GSPT1 [1]: potent and specific degrader of IKZF2
- binding to plasma protein [2]: 73%
- dose proportionality of AUC ([3]; between 3 mg/kg and 100 mg/kg): roughly dose proportional
- bioavailability ([3]; blood, po): 53%
- Kp ([3]; brain, read-out: brain/plasma ratio): 0.07
- IL-2 mRNA expression [4]: expressed more IL-2 mRNA in a dose-dependent manner
- reduction of IKZF2 positivity in tumor Tregs ([5]; flow cytometry, unbound exposure (AUCinf) 7 ng*h/mL): 31%
- reduction of IKZF2 positivity in tumor Tregs ([5]; flow cytometry, unbound exposure (AUCinf) 30 ng*h/mL): 43%
- reduction of IKZF2 positivity in tumor Tregs ([5]; flow cytometry, unbound exposure (AUCinf) 157 ng*h/mL): 56%
- reduction of IKZF2 positivity in tumor Tregs ([5]; flow cytometry, unbound exposure (AUCinf) 3474 ng*h/mL): 75%
- time of maximum effects on IKZF2 positive Tregs ([5]; post dose, hPBMC AdT model): 4 to 16 h
- IKZF2 degradation (reduction of the percentage of IKZF2 positive Tregs) ([5]; tumor and peripheral blood, after 14 daily doses, flow cytometry): robust dose and exposure-dependent IKZF2 degradation
- time-dependent inhibition of CYP3A [6]: no apparent time-dependent inhibition
- IKZF2 degradation ([7]; 0.1 mg/kg dose level, repeated daily): profound
- time after initiation of treatment to steady-state level of IKZF2 ([7]; repeated daily oral doses): approximately 72 h
- time after the first dose at which IKZF2 degradation was detected ([7]; repeated daily oral doses of 0.1 and 3 mg/kg): 24 h
- time-dependent inhibition of CYP2C19 [8]: no apparent time-dependent inhibition
- Cmax [9, 12]: 7.1 ng/mL
- AUC(0-t) [9, 12]: 56.8 ng·h/mL
- Cmax [9, 13]: 11 ng/mL
- AUC(0-t) [9, 13]: 63.5 ng·h/mL
- Cmax [9, 14]: 13.1 ng/mL
- AUC(0-t) [9, 14]: 78.1 ng·h/mL
- Cmax [9, 15]: 18 ng/mL
- AUC(0-t) [9, 15]: 96.4 ng·h/mL
- Cmax [9, 16]: 523 ng/mL
- AUC(0-t) [9, 16]: 2840 ng·h/mL
- Cmax [9, 17]: 504 ng/mL
- AUC(0-t) [9, 17]: 3460 ng·h/mL
- AUC0-24/D [9, 18]: 567 (ng · h/mL)/(mg/kg)
- Cmax/D [9, 18]: 71.0 (ng/mL)/(mg/kg)
- AUC0-24/D [9, 19]: 634 (ng · h/mL)/(mg/kg)
- Cmax/D [9, 19]: 110 (ng/mL)/(mg/kg)
- AUC0-24/D [9, 20]: 946 (ng · h/mL)/(mg/kg)
- Cmax/D [9, 20]: 175 (ng/mL)/(mg/kg)
- AUC0-24/D [9, 21]: 782 (ng · h/mL)/(mg/kg)
- Cmax/D [9, 21]: 131 (ng/mL)/(mg/kg)
- AUC0-24/D [9, 22]: 965 (ng · h/mL)/(mg/kg)
- Cmax/D [9, 22]: 180 (ng/mL)/(mg/kg)
- AUC0-24/D [9, 23]: 1150 (ng · h/mL)/(mg/kg)
- Cmax/D [9, 23]: 169 (ng/mL)/(mg/kg)
- inhibition of CYP2A6 [10]: very little and no inhibition
- time-dependent inhibition of CYP2C9 [11]: no apparent time-dependent inhibition
